In PubChem BioAssay AID1259407 (Chemical Carcinogenesis Research Information System (CCRIS), 2018):
Active and inactive are the calls of the source. How the calls were made is not given here.

Tested on: CCRIS mutagenicity, Ames/micronucleus/aberration tests
Experiment: CCRIS mutagenicity studies
[1] = Test System: AMES SALMONELLA TYPHIMURIUM, Strain/Indicator: TA98, Metabolic Activation: NONE, Method: PREINCUBATION

c1ccc2cnncc2c1
mutagenic call (Test System: AMES SALMONELLA TYPHIMURIUM, Strain/Indicator: TA98, Metabolic Activation: HAMSTER, LIVER, S-9, AROCLOR 1254, Method: STANDARD PLATE): inactive; negative | mutagenic call [1]: inactive; negative | mutagenic call (Test System: AMES SALMONELLA TYPHIMURIUM, Strain/Indicator: TA98, Metabolic Activation: NONE, Method: STANDARD PLATE): inactive; negative | mutagenic call (Test System: AMES SALMONELLA TYPHIMURIUM, Strain/Indicator: TA98, Metabolic Activation: RAT, LIVER, S-9, AROCLOR 1254, Method: STANDARD PLATE): inactive; negative | mutagenic call (Test System: AMES SALMONELLA TYPHIMURIUM, Strain/Indicator: TA98, Metabolic Activation: RAT, LIVER, S-9, PCB, Method: PREINCUBATION): inactive; negative | mutagenic call (Test System: AMES SALMONELLA TYPHIMURIUM, Strain/Indicator: TA100, Metabolic Activation: HAMSTER, LIVER, S-9, AROCLOR 1254, Method: STANDARD PLATE): inactive; negative | mutagenic call (Test System: AMES SALMONELLA TYPHIMURIUM, Strain/Indicator: TA100, Metabolic Activation: NONE, Method: PREINCUBATION): inactive; negative | mutagenic call (Test System: AMES SALMONELLA TYPHIMURIUM, Strain/Indicator: TA100, Metabolic Activation: NONE, Method: STANDARD PLATE): inactive; negative | mutagenic call (Test System: AMES SALMONELLA TYPHIMURIUM, Strain/Indicator: TA100, Metabolic Activation: RAT, LIVER, S-9, AROCLOR 1254, Method: STANDARD PLATE): inactive; negative | mutagenic call (Test System: AMES SALMONELLA TYPHIMURIUM, Strain/Indicator: TA100, Metabolic Activation: RAT, LIVER, S-9, PCB, Method: PREINCUBATION): inactive; negative | mutagenic call (Test System: AMES SALMONELLA TYPHIMURIUM, Strain/Indicator: TA1535, Metabolic Activation: HAMSTER, LIVER, S-9, AROCLOR 1254, Method: STANDARD PLATE): inactive; negative | mutagenic call (Test System: AMES SALMONELLA TYPHIMURIUM, Strain/Indicator: TA1535, Metabolic Activation: NONE, Method: STANDARD PLATE): inactive; negative | mutagenic call (Test System: AMES SALMONELLA TYPHIMURIUM, Strain/Indicator: TA1535, Metabolic Activation: RAT, LIVER, S-9, AROCLOR 1254, Method: STANDARD PLATE): inactive; negative | mutagenic call (Test System: AMES SALMONELLA TYPHIMURIUM, Strain/Indicator: TA1537, Metabolic Activation: HAMSTER, LIVER, S-9, AROCLOR 1254, Method: STANDARD PLATE): inactive; negative | mutagenic call (Test System: AMES SALMONELLA TYPHIMURIUM, Strain/Indicator: TA1537, Metabolic Activation: NONE, Method: STANDARD PLATE): inactive; negative | mutagenic call (Test System: AMES SALMONELLA TYPHIMURIUM, Strain/Indicator: TA1537, Metabolic Activation: RAT, LIVER, S-9, AROCLOR 1254, Method: STANDARD PLATE): inactive; negative | mutagenic call (Test System: AMES SALMONELLA TYPHIMURIUM, Strain/Indicator: TA1538, Metabolic Activation: HAMSTER, LIVER, S-9, AROCLOR 1254, Method: STANDARD PLATE): inactive; negative | mutagenic call (Test System: AMES SALMONELLA TYPHIMURIUM, Strain/Indicator: TA1538, Metabolic Activation: NONE, Method: STANDARD PLATE): inactive; negative | mutagenic call (Test System: AMES SALMONELLA TYPHIMURIUM, Strain/Indicator: TA1538, Metabolic Activation: RAT, LIVER, S-9, AROCLOR 1254, Method: STANDARD PLATE): inactive; negative | mutagenic call (Test System: MOUSE LYMPHOMA, Strain/Indicator: L5178Y (TK+/TK-), Metabolic Activation: NONE, Method: SUSPENSION/PLATE): active; positive. reevaluation of results: equivocal | mutagenic call (Test System: MOUSE LYMPHOMA, Strain/Indicator: L5178Y (TK+/TK-), Metabolic Activation: RAT, LIVER, S-9, AROCLOR 1254, Method: SUSPENSION/PLATE): active; positive. reevaluation of results: positive

COC(=O)/C(C#N)=C/c1ccco1
mutagenic call [1]: inactive; negative
